For data set [1], the system named is Intestinal cells (Caco-2). In words: Intestinal cells - cell viability. Type of data set: cell-based. Further details: unit not given here. The text has this: For this purpose, intestinal barrier model (transwell, patented model from Novara University, Italy) is used to determine the rate of passage and therefore to estimate a better pass-effect of melatonin in combination with piperine and vitamin D than melatonin alone. In this phase, vitality will also be assessed in the presence of the treatments alone and in combination with melatonin, in addition to melatonin alone. […] A time-dependent trend can be observed for all tested substances. In addition, substances other than melatonin have an efficacy that resolves within 2-4 hours of treatment.

For data set [2] the following is noted: cited from earlier work.
In data set [3] the test system is Intestinal cells (Caco-2). In words: Intestinal absorption rate, intestinal barrier model (transwell), fluorescent tracer. Format: in vitro ADME. The text has this:
For this purpose, intestinal barrier model (transwell, patented model from Novara University, Italy) is used to determine the rate of passage and therefore to estimate a better pass-effect of melatonin in combination with piperine and vitamin D than melatonin alone. In this phase, vitality will also be assessed in the presence of the treatments alone and in combination with melatonin, in addition to melatonin alone. […] 3.1.b. Intestinal absorption: to determine speed based on the fluorescent tracer, the percentage velocity calculated with respect to the control.

Setting [4] is: Time 1 h, Melatonin 1mM, Piperine 5µM, Vitamin D3 1nM, Vitamin B6 500µM.

Where two headings read alike, the source gives them in different places.

Take `COc1ccc2[nH]cc(CCNC(C)=O)c2c1` [Melatonin, N-[2-(5-Methoxy-1H-indol-3-yl)ethyl]acetamide]: the “Cell viability, Average” value in data set [1] (setting [4]) is 13.375; in data set [1] (Time 2 h), 10.905; in data set [1] (Time 3 h), 7.57; in data set [1] (Time 4 h), 6.965; in data set [1] (Time 5 h), 2.57; in data set [1] (Time 6 h), 1.005.

With `O=C(/C=C/C=C/c1ccc2c(c1)OCO2)N1CCCCC1` [Piperine, (2E,4E)-5-(2H-1,3-Benzodioxol-5-yl)-1-(piperidin-1-yl)penta-2,4-dien-1-one], the solubility entry in data set [2] (in alcohol) is reported as “soluble”; in data set [2] (in water), “insoluble”. Also, the “Cell viability, Average” value is on record as 6.37 in data set [1] (setting [4]); 30.25 in data set [1] (Time 2 h); 21.625 in data set [1] (Time 3 h); 14.125 in data set [1] (Time 4 h); 12.32 in data set [1] (Time 5 h); 6.74 in data set [1] (Time 6 h).

Turning to `Cc1ncc(CO)c(CO)c1O.Cl` [Vitamin B6, Pyridoxine HCI], the “Cell viability, Average” value is recorded as 11.985 in data set [1] (setting [4]); 5.215 in data set [1] (Time 2 h); 5.965 in data set [1] (Time 3 h); 9.105 in data set [1] (Time 4 h); 3.565 in data set [1] (Time 5 h); 4.8 in data set [1] (Time 6 h).

For `C=C1CC[C@H](O)C/C1=C/C=C1\CCC[C@]2(C)[C@@H]([C@H](C)CCCC(C)C)CC[C@@H]12` [Vitamin D3], the “Speed (percentage velocity calculated with respect to the control)” value in data set [3] (Time 2 h) is 15.00%; in data set [3] (Time 3 h) it was 19.00%; in data set [3] (Time 4 h) it was 17.00%; in data set [3] (Time 5 h) it was 13.00%; in data set [3] (Time 6 h) it was 10.00%; in data set [3] (time 1 h) it was 10.00%. Besides, in data set [3] (time point printed as 30), the “Speed (percentage velocity calculated with respect to the control)” value is on record as 8.00%. Moreover, the “Cell viability, Average” value in data set [1] (setting [4]) worked out at 6.91; in data set [1] (Time 2 h), 14.185; in data set [1] (Time 3 h), 18.32; in data set [1] (Time 4 h), 16.325; in data set [1] (Time 5 h), 9.315; in data set [1] (Time 6 h) it was 0.78.
